Source: ChEMBL document CHEMBL1137391, “Synthesis and evaluation of indenoisoquinoline topoisomerase I inhibitors substituted with nitrogen heterocycles” (2006)

Columns and labels:
Type in all cases: functional
HOP-62 = experiment: Cytotoxicity against human HOP62 cell line
HCT-116 = experiment: Cytotoxicity against human HCT116 cell line
SF-539 = experiment: Cytotoxicity against human SF539 cell line
UACC-62 = experiment: Cytotoxicity against human UACC62 cell line
OVCAR-3 = experiment: Cytotoxicity against human OVCAR-3 cell line
SN12C = experiment: Cytotoxicity against human SN12C cell line
DU-145 = experiment: Cytotoxicity against human DU145 cell line
MDA-MB-435 = experiment: Cytotoxicity against human MDA-MB-435 cell line

SMILES	GI50 (HOP-62) [nM]	GI50 (HCT-116) [nM]	GI50 (SF-539) [nM]	GI50 (UACC-62) [nM]	GI50 (OVCAR-3) [nM]	GI50 (SN12C) [nM]	GI50 (DU-145) [nM]	GI50 (MDA-MB-435) [nM]
COc1cc2c3c(n(CCCN4CCCNCC4)c(=O)c2cc1OC)-c1cc2c(cc1C3=O)OCO2	< 5	214	145	457	5010	145	81	2630
COc1cc2c3c(n(CCCNCCN4CCOCC4)c(=O)c2cc1OC)-c1cc2c(cc1C3=O)OCO2	< 5	< 5	550	162	525	1480	603	1950
COc1cc2c3c(n(CCCn4cncn4)c(=O)c2cc1OC)-c1cc2c(cc1C3=O)OCO2	79	1910	288	< 10	61700	85	85	> 100000
COc1cc2c3c(n(CCCN4CCOCC4)c(=O)c2cc1OC)-c1cc2c(cc1C3=O)OCO2 [INDOTECAN]	1780	1150	40	30	74100	813	155	67600
O=C1c2ccccc2-c2c1c1ccc([N+](=O)[O-])cc1c(=O)n2CCCn1ccnc1	190	274	16	12	864	15	17	2170
COc1cc2c3c(n(C)c(=O)c2cc1OC)-c1cc2c(cc1C3=O)OCO2	1300	35000	–	4200	–	68000	37000	96000
COc1cc2c3c(n(CCCN4CCN(C)CC4)c(=O)c2cc1OC)-c1cc2c(cc1C3=O)OCO2	18200	1480	17800	15100	15100	11500	10700	> 100000
COc1cc2c3c(n(CCCn4cccn4)c(=O)c2cc1OC)-c1cc2c(cc1C3=O)OCO2	447	1990	398	269	56200	316	363	7080
COc1cc2c3c(n(CCCN4CCC(N)CC4)c(=O)c2cc1OC)-c1cc2c(cc1C3=O)OCO2	427	120	100	1290	832	257	182	1740
COc1cc2c3c(n(CCCN4CCCC(O)C4)c(=O)c2cc1OC)-c1cc2c(cc1C3=O)OCO2 (configuration not stated)	< 5	< 5	< 5	5010	5750	126	< 5	977
COc1cc2c3c(n(CCCN4CCN(CCO)CC4)c(=O)c2cc1OC)-c1cc2c(cc1C3=O)OCO2	9770	2340	1440	1230	15100	> 100000	275	> 100000
O=C1c2ccccc2-c2c1c1ccccc1c(=O)n2CCCn1ccnc1	2690	1410	2340	790	1660	1660	1410	–
COc1cc2c3c(n(CCCN4CCNCC4)c(=O)c2cc1OC)-c1cc2c(cc1C3=O)OCO2	< 5	575	< 5	1200	2040	91	15	4570
COc1cc2c3c(n(CCCN4CCSCC4)c(=O)c2cc1OC)-c1cc2c(cc1C3=O)OCO2	26300	72400	18200	37200	34700	–	> 100000	> 100000
COc1cc2c3c(n(CCCn4ccnc4)c(=O)c2cc1OC)-c1ccccc1C3=O	< 10	< 10	< 10	< 10	< 10	< 10	< 10	14
COc1cc2c3c(n(CCCn4ccnc4)c(=O)c2cc1OC)-c1cc2c(cc1C3=O)OCO2	< 10	< 10	37	< 10	85	< 10	< 10	20
COc1cc2c3c(n(CCCNC4=NCCS4)c(=O)c2cc1OC)-c1cc2c(cc1C3=O)OCO2	< 10	< 10	< 10	14	41	< 10	< 10	< 10
